Measurements: patent publication US20240082342A1, “PEPTIDE THERAPEUTICS FOR INCREASING LUNG CELL VIABILITY” (BOARD OF REGENTS, THE UNIVERSITY OF TEXAS SYSTEM, priority 2018, published 2024)
Entries after “also recorded” stand apart in the source; their conditions may differ.

Legend:
A2Cs of uPA^−/− mice = assay: Tobacco smoke or repeated bleomycin exposure of uPA-/- mice; type: in vivo, mouse
Description: To analyze the effect of cigarette smoke, mice were exposed to passive smoke from 40 research cigarettes over a 2-hour period once (2 h) or twice (4 h) daily for 5 days/week for 20 weeks (˜90 mg/m^3 total solid particulates) using a mechanical smoking chamber (Teague Enterprises, Davis, CA). Control mice were exposed to ambient air. At the 18th week, peptide treatment at a dosage of 30 μg/20 g body weight was initiated and continued on a daily basis for the next 14 days. At the end of the experiment, the mice were euthanized and used for the experiments.
To analyze the effect of BLM, mice were exposed to BLM (40 μg/20 g body weight) once per two week for 16 weeks. Control mice were exposed to normal saline. At 14th week the peptide treatment at a dosage of 30 μg/20 g body weight was initiated and continued on a daily basis for the next 14 days. At the end of the experiment, the mice were euthanized and used for the experiments.
(§1) To test the effect of chronic TS exposure induced lung injury, these mice were exposed to passive TS from 40 research cigarettes over a 4 h period 5 days/week for 20 weeks (˜90 mg/m3 total solid particulates) using a mechanical smoking chamber (Teague Enterprises, Davis, CA) as described earlier. (Bhandary et al, 2015). Control mice were kept in ambient air. After sixteen weeks of daily passive TS exposure, mice with TS exposure injury were treated with CSP7 at a dosage of 1.5 mg/kg body weight daily 5 days/week for the next four weeks. These mice were continued with daily exposure of 4 h of TS during CSP7 treatment. At the end of the experiment (after 20 weeks of TS exposure), the mice were euthanized, and lungs were utilized for further analyses. To expand the local delivery options of CSP7 to directly treat the damaged lung by air-jet milling for dry powder inhalation (DPI). Mice exposed to TSE were treated with CSP7 using a rotating brush generator for 15 min daily for 7 days. Fourteen days later, BLM mice were subjected to daily inhalation of micronized CSP7 (0.05 mg/kg/d) DP through air-jet-milling for seven consecutive days using a rotating brush exposure system. The rotating brush exposure system gave a consistent minimal chamber concentration of 0.1 mg/L. In order to match dosing of DP inhalation, animal exposure times were adjusted to approximately 15 minutes and an estimated dose of 0.05 mg/kg/d or 1.00 microgram/lung was administered.
To evaluate the effect of CSP7 against chronic BLM-induced PF, the mice were exposed to BLM (40 μg/20 g body weight) once every two weeks for 16 weeks as described elsewhere. (Tiwari et al, 2016). Control mice were exposed to normal saline. Fourteen weeks later the CSP7 at a dosage of 1.5 mg/kg body weight was administered by IP injection and continued daily basis for the next two weeks as described elsewhere. (Tiwari et al, 2016; Shetty et al, 2008b). At the end of the experiment, the mice were euthanized and lung tissues and isolated A2Cs from the extracted lung tissues were used for further analysis.

[1] = test system: A2Cs of WT mice exposed to tobacco smoke; assay: Chronic passive tobacco smoke (20 weeks) lung injury in WT mice, A2C telomere analyses; type: in vivo, mouse; details: 20 weeks smoke
Description: Relative telomere length was also analyzed by qPCR analysis of the genomic DNA as described by Callicott R J et al., (Comp Med 2006; 56:17-22) and Cawthon RM (Nucleic Acids Res 2002; 30:e47-e47). The […] gene was served as the control.
as §1, with “administered. […]” for “administered.”
Measurement of terminal restriction fragment (telomeric) length. For the determination of telomeric length, the TeloTTAGGG Telomere Length Assay Kit (Roche Diagnostics GmbH) was used. Briefly, genomic DNA was isolated and digested with Hinf1/Rsa. The digested DNA fragments were then separated by electrophoresis on agarose gel followed by Southern blot transfer. The membrane was then hybridized with a telomere specific digoxigenin (DIG)-labelled probe, incubated with anti-DIG alkaline phosphatase, and documented with chemiluminescence detection in gel-doc unit (Bio-Rad Laboratories). Telomeric length was identified by comparing with the pre-labelled molecular weight marker. The relative telomere length was calculated according to the protocol provided. In addition, relative telomere length was analyzed by qPCR analysis of the genomic DNA. (Cawthon, Nucleic Acids Res 2002, 30:e47-e47; Alder et al, Proc Natl Acad Sci USA 2015, 112:5099-5104.) The 36B4 gene was served as the control.

Substance	p53, ACp53, S15p53, apoptosis, senescence, PAI-1, SIAH1/2, TRF1, TRF2, PNUTS, TERT (Western blot) (A2Cs of uPA^−/− mice; uPA-/- mice, 8×BLM PF)	telomerase enzyme activity (trapeze) (A2Cs of uPA^−/− mice; uPA-/- mice, 8×BLM PF)	telomere length (qPCR) (A2Cs of uPA^−/− mice; uPA-/- mice, 8×BLM PF)	telomere shortening (qPCR) (A2Cs of uPA^−/− mice; uPA-/- mice, 20 weeks TS)	telomere shortening (A2Cs of uPA^−/− mice; uPA-/- mice, 20 weeks smoke or repeated BLM, vs CP)	IHC of lung sections for TRF1 (A2Cs of uPA^−/− mice; uPA-/- mice, TS)	TRF1, TRF2 and TERT expression in A2Cs (A2Cs of uPA^−/− mice; uPA-/- mice, TS)	p53 modification/induction, active caspase-3, β-galactosidase (Western blot) (A2Cs of uPA^−/− mice; uPA-/- mice, TS)	telomerase activity (A2Cs of uPA^−/− mice; uPA-/- mice, TS)	activation of p53, caspase-3, β-galactosidase (Western blot) (A2Cs of uPA^−/− mice; uPA-/- mice, smoke or BLM)	telomerase enzyme activity (trapeze) (A2Cs of uPA^−/− mice; uPA-/- mice, smoke or BLM)	TRF1, TRF2 and TERT expression (A2Cs of uPA^−/− mice; uPA-/- mice, smoke or BLM, CSP7 vs CP groups)	p53-induced PAI-1 expression or telomere dysfunction (A2Cs of uPA^−/− mice; uPA-deficient mice, TS- and 8×BLM-induced lung injury)	IHC of lung sections for TRF2, p53, PAI-1, TRF1 [1]	SIAH-1 expression in A2Cs [1]	TRF2 and TERT expression in A2Cs [1]	p53, cleaved caspase-3 and β-galactosidase expression in A2Cs (Western blot) [1]	TERT enzyme activity (TRAPeze assay) ([1]; vs CP group)	relative telomere length of A2Cs (qPCR), telomere shortening ([1]; vs control peptide CP)
FTTFTVT (listed as Homo sapiens) [CSP7, heptapeptide fragment of the caveolin-1 scaffolding domain peptide CSP]	minimal effect	failed to restore	failed to restore telomere length	failed to respond to CSP7 treatment	did not show significant difference in telomere shortening	minimal inhibition	no significant change	failed to inhibit post-translational modification or induction of p53, active caspase-3 or β-galactosidase	inability of CSP7 to reverse telomere shortening or improve telomerase activity	failed to inhibit activation of p53, caspase-3 as well as β-galactosidase	did not restore the telomerase enzyme activity	no significant change	failed to suppress p53-induced PAI-1 expression or telomere dysfunction	restoration of TRF2 expression with reduction in p53 and PAI-1 expression	Downregulation of SIAH-1 was significantly more; also recorded: markedly downregulated	restoration of TRF2 and TERT expression	significant decrease; also recorded: markedly suppressed	significantly higher	significant resistance in telomere shortening
WGIDKAFFTTSTVTYKWFRY [CP, scrambled control peptide with the same amino acid composition as CSP, reference compound]	–	–	–	–	–	–	no significant change	–	–	–	–	–	–	–	still showed elevated p53 and SIAH-1	–	–	–	–
